The values that follow come from patent US20260035364A1, “BICYCLIC TETRAHYDROTHIAZEPINE DERIVATIVES” (Hoffmann-La Roche Inc., priority 2022, published 2026).

One experiment concerns primary human T-cells. Briefly: T-cell proliferation assay (CellTiter-Glo). Type of experiment: cell-based. The note with it: CD3 condition; for Emax: read-out: Emax proliferation (% activation); for EC50: proliferation after 5 days, CellTiter-Glo, read-out: Tcell Proliferation CD3 EC50. In short, it runs like this: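 Expanded primary human T-cells (100k/well) on plates coated with CD3 antibody or PBS only, given a 5- or 6-point dose response (top 20 or 10 μM final, 3.333-fold steps, 0.2% DMSO). ATP measured by CellTiter-Glo 2.0 luminescence after 5 days. Normalized to DMSO and 20 μM reference A1 (100%); EC50 and Emax reported for CD3 conditions.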
Background: In ATP-based viability assays light output follows the ATP content of the culture.

The target of the next experiment is DGKzeta (Homo sapiens, UniProt Q13574). Briefly: In vitro DGK inhibition assay (ADP-Glo, liposomes), DGKzeta. Type of experiment: biochemical. On the set-up: hDGKzeta(1-928)-N-His; His (N); made in house; host or cells: Sf21 insect cells (baculovirus). The settings on record: 2 nM DGK ζ, 50 μM ATP, 125 uM DLG in liposomes, 1 hour reaction. In short, it runs like this:
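DGKζ (2 nM) phosphorylated DLG presented in DLG/PS/PC liposomes (final DLG 125 μM) with 50 μM ATP for 1 hour. ADP formed was read by ADP-Glo luminescence. Compounds were tested as 11-point 1:3 dose responses in 2% final DMSO.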
On the technique in general: ADP-Glo turns the ADP formed in a reaction into a luminescent signal.

Where [1] appears, read: Homo sapiens, T-cell, 120 h, 5 days, 20 μM reference compound A1 = 100%.

Read-outs that look alike come from different tables or passages of the source.

DGKzeta, sequence (Q13574 whole entry): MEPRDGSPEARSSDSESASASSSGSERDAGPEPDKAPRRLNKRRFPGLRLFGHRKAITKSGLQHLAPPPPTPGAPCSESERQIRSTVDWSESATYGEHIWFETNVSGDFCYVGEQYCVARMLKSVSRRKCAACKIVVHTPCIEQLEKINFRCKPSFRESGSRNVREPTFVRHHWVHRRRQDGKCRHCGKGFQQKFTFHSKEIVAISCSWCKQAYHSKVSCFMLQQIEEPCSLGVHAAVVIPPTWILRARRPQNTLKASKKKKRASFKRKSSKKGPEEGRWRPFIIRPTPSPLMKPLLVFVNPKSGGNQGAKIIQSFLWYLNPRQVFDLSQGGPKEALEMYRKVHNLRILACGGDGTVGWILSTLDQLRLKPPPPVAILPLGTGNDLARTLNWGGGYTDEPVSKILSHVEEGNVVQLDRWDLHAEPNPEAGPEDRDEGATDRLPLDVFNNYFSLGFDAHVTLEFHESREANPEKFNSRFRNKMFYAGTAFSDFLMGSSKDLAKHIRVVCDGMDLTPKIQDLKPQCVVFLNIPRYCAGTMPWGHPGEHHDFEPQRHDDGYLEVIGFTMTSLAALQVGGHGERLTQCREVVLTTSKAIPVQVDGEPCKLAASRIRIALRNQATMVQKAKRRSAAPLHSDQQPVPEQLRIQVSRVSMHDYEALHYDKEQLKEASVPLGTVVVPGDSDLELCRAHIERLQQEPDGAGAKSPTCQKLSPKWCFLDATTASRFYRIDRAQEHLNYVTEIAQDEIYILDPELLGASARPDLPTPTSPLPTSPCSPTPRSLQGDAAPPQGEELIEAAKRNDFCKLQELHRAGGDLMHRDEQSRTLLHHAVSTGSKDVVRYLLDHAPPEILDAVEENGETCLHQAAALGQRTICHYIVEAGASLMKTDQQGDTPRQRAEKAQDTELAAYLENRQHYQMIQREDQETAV

Take `CC(C)(c1nnc(-c2ccc3c(c2)N(Cc2ccc(SC(F)(F)F)cc2)C(=O)[C@@H](N)CS3(=O)=O)o1)S(C)(=O)=O` [Example 7]: in the experiment on primary human T-cells (setting [1]), the Emax was found to be 76%. In addition, the EC50 with primary human T-cells (Homo sapiens, T-cell, 120 h) amounted to 3.59 µM. At DGKzeta, the 50% inhibitory concentration (IC50) is 1.71 µM.
In the case of `CC(C)(c1nc(-c2cc3c(cc2F)S(=O)(=O)C[C@H](N)C(=O)N3Cc2ccc(OC(F)(F)F)cc2)no1)S(C)(=O)=O` [Example 44, (3R)-3-amino-8-fluoro-7-[5-(1-methyl-1-methylsulfonyl-ethyl)-1,2,4-oxadiazol-3-yl]-1,1-dioxo-5-[[4-(trifluoromethoxy)phenyl]methyl]-2,3-dihydro-1λ6,5-benzothiazepin-4-one], in the experiment on primary human T-cells (setting [1]), the Emax was 251%. For the same compound, the EC50 in the experiment on primary human T-cells (Homo sapiens, T-cell, 120 h) was 0.208 µM. On DGKzeta, this compound returned a concentration for half-maximal inhibition (IC50) of 0.317 µM.
For the compound `CC(C)(c1nnc(-c2ccc3c(c2)N(Cc2ccc(-c4ccc(C(F)(F)F)cc4)cc2)C(=O)[C@@H](N)CS3(=O)=O)o1)S(=O)(=O)N1CCCC1` [Example 67, (3R)-3-amino-7-[5-(1-methyl-1-pyrrolidin-1-ylsulfonyl-ethyl)-1,3,4-oxadiazol-2-yl]-1,1-dioxo-5-[[4-[4-(trifluoromethyl)phenyl]phenyl]methyl]-2,3-dihydro-1λ6,5-benzothiazepin-4-one], the Emax with primary human T-cells (setting [1]) stood at 142%. Also, the EC50 in the experiment with primary human T-cells (Homo sapiens, T-cell, 120 h) was 5.51 µM. Also, inhibition on DGKzeta was half-maximal at 49.7 µM (IC50).
Take `CC(C)(c1nnc(-c2cc3c(cc2F)S(=O)(=O)C[C@H](N)C(=O)N3Cc2ccc(-c3ccc(C(F)(F)F)nc3)cc2)o1)S(C)(=O)=O` [Example 36]: the Emax in the experiment on primary human T-cells (setting [1]) came out at 112%. In the experiment on primary human T-cells (Homo sapiens, T-cell, 120 h), the EC50 was 1.68 µM. Moreover, half-maximal inhibition on DGKzeta (IC50) required 0.414 µM.
The like results for `CC(C)(c1nc(-c2cc3c(cc2F)S(=O)(=O)C[C@H](N)C(=O)N3Cc2ccc(Cl)cc2)no1)S(C)(=O)=O` [Example 43, (3R)-3-amino-5-[(4-chlorophenyl)methyl]-8-fluoro-7-[5-(1-methyl-1-methylsulfonyl-ethyl)-1,2,4-oxadiazol-3-yl]-1,1-dioxo-2,3-dihydro-1λ6,5-benzothiazepin-4-one] were, in that order, 153%, 0.075 µM and 0.192 µM.
The like results for `COc1ccc(-c2ccc(CN3C(=O)[C@@H](N)CS(=O)(=O)c4ccc(-c5nnc(C(C)(C)S(C)(=O)=O)o5)cc43)cc2)c(C)c1` [Example 49, (3R)-3-amino-5-[[4-(4-methoxy-2-methyl-phenyl)phenyl]methyl]-7-[5-(1-methyl-1-methylsulfonyl-ethyl)-1,3,4-oxadiazol-2-yl]-1,1-dioxo-2,3-dihydro-1λ6,5-benzothiazepin-4-one] were, in that order, 111%, 3.13 µM and 1.46 µM.
In the same order, the values of `CC1(c2nnc(-c3ccc4c(c3)N(Cc3ccc(Oc5ccccc5)cc3)C(=O)[C@@H](N)CS4(=O)=O)o2)CCCS1(=O)=O` (stereo partly drawn) [Example 58, (3R)-3-amino-7-[5-(2-methyl-1,1-dioxo-thiolan-2-yl)-1,3,4-oxadiazol-2-yl]-1,1-dioxo-5-[(4-phenoxyphenyl)methyl]-2,3-dihydro-1λ6,5-benzothiazepin-4-one] are 112%, 1.1 µM and 0.586 µM.
For the compound `CC(C)(c1nnc(-c2ccc3c(c2)N(Cc2ccc(OC4CCCC4)cc2)C(=O)[C@@H](N)CS3(=O)=O)o1)S(C)(=O)=O` [Example 16, (3R)-3-amino-5-[[4-(cyclopentoxy)phenyl]methyl]-7-[5-(1-methyl-1-methylsulfonyl-ethyl)-1,3,4-oxadiazol-2-yl]-1,1-dioxo-2,3-dihydro-1λ6,5-benzothiazepin-4-one], in the experiment on primary human T-cells (setting [1]), the Emax amounted to 81%. Also, the EC50 in the experiment with primary human T-cells (Homo sapiens, T-cell, 120 h) worked out at 5.36 µM. On DGKzeta, this compound came in with a half-maximal inhibitory concentration (IC50) of 0.82 µM.
On to `CCC(CC)Oc1ccc(CN2C(=O)[C@@H](N)CS(=O)(=O)c3ccc(-c4nnc(C(C)(C)S(C)(=O)=O)o4)cc32)cc1` [Example 19, (3R)-3-amino-5-[[4-(1-ethylpropoxy)phenyl]methyl]-7-[5-(1-methyl-1-methylsulfonyl-ethyl)-1,3,4-oxadiazol-2-yl]-1,1-dioxo-2,3-dihydro-1λ6,5-benzothiazepin-4-one], for which the Emax in the experiment on primary human T-cells (setting [1]) is 78%. Also, the EC50 in the experiment with primary human T-cells (Homo sapiens, T-cell, 120 h) was found to be 2.75 µM. The concentration for half-maximal inhibition (IC50) against DGKzeta was 1.52 µM.
For `CC(C)(c1nc(-c2cc3c(cc2F)[S+]([O-])C[C@H](N)C(=O)N3Cc2ccc(Oc3ccccc3)cc2)no1)S(C)(=O)=O` (stereo partly drawn) [Example 51, (3R)-3-amino-8-fluoro-7-[5-(1-methyl-1-methylsulfonyl-ethyl)-1,2,4-oxadiazol-3-yl]-1-oxo-5-[(4-phenoxyphenyl)methyl]-2,3-dihydro-1λ4,5-benzothiazepin-4-one], in the experiment with primary human T-cells (5 days, 20 μM reference compound A1 = 100%), the “Emax proliferation (% activation)” value was determined as 67%. For the same compound, the EC50 in the experiment on primary human T-cells was > 10 µM. The midpoint of inhibition on DGKzeta, the IC50, lay at 0.371 µM.
Take `COc1cc(Cl)cc(Oc2ccc(CN3C(=O)[C@@H](N)CS(=O)(=O)c4ccc(-c5nnc(C(C)(C)S(C)(=O)=O)o5)cc43)cc2)c1` [Example 41, (3R)-3-amino-5-[[4-(3-chloro-5-methoxy-phenoxy)phenyl]methyl]-7-[5-(1-methyl-1-methylsulfonyl-ethyl)-1,3,4-oxadiazol-2-yl]-1,1-dioxo-2,3-dihydro-1λ6,5-benzothiazepin-4-one]: the Emax in the experiment with primary human T-cells (setting [1]) is 97%. For the same compound, in the experiment with primary human T-cells (Homo sapiens, T-cell, 120 h), the EC50 was 1.71 µM. The compound further yielded an IC50 at DGKzeta of 2.29 µM.
In the same order, the values of `CC(C)(c1nnc(-c2ccc3c(c2)N(Cc2ccc(-c4noc(C(F)(F)F)n4)cc2)C(=O)[C@@H](N)CS3(=O)=O)o1)S(C)(=O)=O` [Example 17, (3R)-3-amino-7-[5-(1-methyl-1-methylsulfonyl-ethyl)-1,3,4-oxadiazol-2-yl]-1,1-dioxo-5-[[4-[5-(trifluoromethyl)-1,2,4-oxadiazol-3-yl]phenyl]methyl]-2,3-dihydro-1λ6,5-benzothiazepin-4-one] are 112%, 1.46 µM and 3.11 µM.
In the case of `CS(=O)(=O)C1(c2nnc(-c3ccc4c(c3)N(Cc3ccc(Oc5ccccc5)cc3)C(=O)[C@@H](N)CS4(=O)=O)o2)CCC1` [Example 68, (3R)-3-amino-7-[5-(1-methylsulfonylcyclobutyl)-1,3,4-oxadiazol-2-yl]-1,1-dioxo-5-[(4-phenoxyphenyl)methyl]-2,3-dihydro-1λ6,5-benzothiazepin-4-one], in the experiment with primary human T-cells (setting [1]), the Emax came out at 83%. The EC50 with primary human T-cells (Homo sapiens, T-cell, 120 h) worked out at 2.29 µM. Besides, the half-maximal inhibitory concentration (IC50) against DGKzeta was determined as 3.5 µM.
On to `CC(C)(c1nnc(-c2cc3c(cc2F)S(=O)(=O)C[C@H](N)C(=O)N3Cc2ccc(OCC(F)(F)F)cc2)o1)S(C)(=O)=O` [Example 24, (3R)-3-amino-8-fluoro-7-[5-(1-methyl-1-methylsulfonyl-ethyl)-1,3,4-oxadiazol-2-yl]-1,1-dioxo-5-[[4-(2,2,2-trifluoroethoxy)phenyl]methyl]-2,3-dihydro-1λ6,5-benzothiazepin-4-one], for which the Emax in the experiment with primary human T-cells (setting [1]) was 104%. In addition, the EC50 in the experiment with primary human T-cells (Homo sapiens, T-cell, 120 h) amounted to 0.475 µM. The compound also came in with a concentration for half-maximal inhibition (IC50) on DGKzeta of 0.503 µM.
In the same order, the values of `CC(C)(c1nnc(-c2ccc3c(c2)N(Cc2ccc(-c4ccc(C(F)(F)F)cc4)nc2)C(=O)[C@@H](N)CS3(=O)=O)o1)S(C)(=O)=O` [Example 57, (3R)-3-amino-7-[5-(1-methyl-1-methylsulfonyl-ethyl)-1,3,4-oxadiazol-2-yl]-1,1-dioxo-5-[[6-[4-(trifluoromethyl)phenyl]-3-pyridyl]methyl]-2,3-dihydro-1λ6,5-benzothiazepin-4-one] are 65%, 1.11 µM and 8.95 µM.
Regarding `CS(=O)(=O)C1(c2nnc(-c3cc4c(cc3F)S(=O)(=O)C[C@H](N)C(=O)N4Cc3ccc(Cl)cc3)o2)CC1` [Example 1, (3R)-3-amino-5-[(4-chlorophenyl)methyl]-8-fluoro-7-[5-(1-methylsulfonylcyclopropyl)-1,3,4-oxadiazol-2-yl]-1,1-dioxo-2,3-dihydro-1λ6,5-benzothiazepin-4-one], the Emax with primary human T-cells (setting [1]) came out at 99%. The EC50 in the experiment with primary human T-cells (Homo sapiens, T-cell, 120 h) is 2.29 µM. Moreover, the half-maximal inhibitory concentration (IC50) against DGKzeta worked out at 0.989 µM.
In the same order, the values of `CC(C)(c1nc(-c2cc3c(cc2F)S(=O)(=O)C[C@H](N)C(=O)N3Cc2ccc(-c3noc(C(F)(F)F)n3)cc2)no1)S(C)(=O)=O` [Example 46, (3R)-3-amino-8-fluoro-7-[5-(1-methyl-1-methylsulfonyl-ethyl)-1,2,4-oxadiazol-3-yl]-1,1-dioxo-5-[[4-[5-(trifluoromethyl)-1,2,4-oxadiazol-3-yl]phenyl]methyl]-2,3-dihydro-1λ6,5-benzothiazepin-4-one] are 185%, 0.135 µM and 0.256 µM.
For the compound `CC(C)(c1nnc(-c2ccc3c(c2)N(Cc2ccc(Oc4cccc(OC(F)F)c4)cc2)C(=O)[C@@H](N)CS3(=O)=O)o1)S(C)(=O)=O` [Example 47, (3R)-3-amino-5-[[4-[3-(difluoromethoxy)phenoxy]phenyl]methyl]-7-[5-(1-methyl-1-methylsulfonyl-ethyl)-1,3,4-oxadiazol-2-yl]-1,1-dioxo-2,3-dihydro-1λ6,5-benzothiazepin-4-one], the Emax in the experiment with primary human T-cells (setting [1]) was 156%. The EC50 in the experiment on primary human T-cells (Homo sapiens, T-cell, 120 h) amounted to 0.351 µM. In addition, on DGKzeta, 0.468 µM corresponded to half-maximal inhibition (IC50).

As a reminder, the IC50 is the concentration at which inhibition is half-maximal.
